Results reported in ChEMBL document CHEMBL1201862, “PubChem BioAssay data set” (2004).
Active and inactive are the calls of the source.

Assays:
Protein RecA = molecular target: T1, Protein RecA (Mycobacterium tuberculosis, UniProt P9WHJ3); experiment: Fluorescence Cell-Free Homogeneous Dose Retest to Identify Inhibitors of RecA-Intein Splicing Activity. [Related pubchem assays (depositor defined):AID2097, AID2223, AID489010, AID492950]; type: functional
T1 sequence (P9WHJ3 whole entry): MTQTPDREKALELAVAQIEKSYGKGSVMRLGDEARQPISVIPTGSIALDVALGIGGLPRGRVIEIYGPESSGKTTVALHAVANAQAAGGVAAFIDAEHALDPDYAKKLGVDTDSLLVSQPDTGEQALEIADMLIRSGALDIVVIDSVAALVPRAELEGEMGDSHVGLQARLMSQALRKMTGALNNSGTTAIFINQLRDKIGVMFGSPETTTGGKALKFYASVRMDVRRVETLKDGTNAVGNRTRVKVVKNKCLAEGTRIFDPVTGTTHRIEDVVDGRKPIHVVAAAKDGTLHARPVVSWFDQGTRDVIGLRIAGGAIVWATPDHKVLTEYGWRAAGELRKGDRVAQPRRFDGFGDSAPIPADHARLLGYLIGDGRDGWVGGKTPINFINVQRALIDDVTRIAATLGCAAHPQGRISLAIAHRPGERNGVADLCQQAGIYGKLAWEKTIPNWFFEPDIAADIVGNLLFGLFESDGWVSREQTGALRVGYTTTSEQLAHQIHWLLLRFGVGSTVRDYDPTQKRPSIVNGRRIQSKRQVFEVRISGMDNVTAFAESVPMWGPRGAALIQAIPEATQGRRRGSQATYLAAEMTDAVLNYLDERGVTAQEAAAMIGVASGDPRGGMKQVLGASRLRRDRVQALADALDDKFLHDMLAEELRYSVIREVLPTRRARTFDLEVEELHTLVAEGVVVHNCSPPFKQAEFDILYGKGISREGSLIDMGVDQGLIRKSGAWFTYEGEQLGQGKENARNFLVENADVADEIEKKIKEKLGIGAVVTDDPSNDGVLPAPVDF

[1] = molecular target: T2, Mannose-6-phosphate isomerase (Homo sapiens, UniProt P34949); experiment: MPI inhibition at elevated mannose 6-phosphate – biochemical, fluorescence intensity, high mannose 6-phosphate, primary screen (AID 1220)
T2 sequence (P34949 whole entry): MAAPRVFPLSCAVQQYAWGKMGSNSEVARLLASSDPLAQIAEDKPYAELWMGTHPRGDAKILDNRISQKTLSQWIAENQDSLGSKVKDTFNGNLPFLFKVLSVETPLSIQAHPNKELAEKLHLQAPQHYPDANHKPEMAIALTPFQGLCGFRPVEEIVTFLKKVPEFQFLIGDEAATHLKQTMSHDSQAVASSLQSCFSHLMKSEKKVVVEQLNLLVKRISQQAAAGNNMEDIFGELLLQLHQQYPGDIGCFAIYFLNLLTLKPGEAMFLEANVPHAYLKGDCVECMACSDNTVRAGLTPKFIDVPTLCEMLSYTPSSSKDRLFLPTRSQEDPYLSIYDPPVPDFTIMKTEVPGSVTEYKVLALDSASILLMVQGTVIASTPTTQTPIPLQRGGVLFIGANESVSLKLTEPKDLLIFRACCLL

[2] = molecular target: T3, Oxysterols receptor LXR-beta (Homo sapiens, UniProt P55055); experiment: LXR agonists, Gal4 luciferase reporter, dose response, counter-screen for ssDAF-12 agonist project, cell-based, luminescence, HEK293, S. stercoralis campaign (AID 720737); type: functional; settings: read-out: IC50 (the source's name)
T3 sequence (P55055 whole entry): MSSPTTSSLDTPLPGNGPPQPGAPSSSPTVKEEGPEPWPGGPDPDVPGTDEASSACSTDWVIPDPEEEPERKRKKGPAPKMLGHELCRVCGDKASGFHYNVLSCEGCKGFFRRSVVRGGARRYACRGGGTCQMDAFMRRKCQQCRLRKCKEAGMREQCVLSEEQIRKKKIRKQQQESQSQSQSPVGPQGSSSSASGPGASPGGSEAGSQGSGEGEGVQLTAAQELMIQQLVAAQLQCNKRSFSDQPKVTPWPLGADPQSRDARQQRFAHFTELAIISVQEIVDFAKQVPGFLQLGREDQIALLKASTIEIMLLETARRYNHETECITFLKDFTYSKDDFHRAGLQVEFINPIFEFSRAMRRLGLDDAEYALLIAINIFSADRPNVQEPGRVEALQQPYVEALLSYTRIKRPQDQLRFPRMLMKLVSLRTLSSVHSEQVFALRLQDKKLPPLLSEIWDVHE

[3] = Luminescence-based cell-based high throughput dose response assay to identify activators of the DAF-12 from the parasite S. stercoralis (ssDAF-12).; type: functional
Caspase-8 = Caspase-8 (Homo sapiens, UniProt Q14790); experiment: inhibitors of purified CASP8 protease – biochemical, Z-IETD-R110 fluorescence, cherry-picked samples, selectivity assay for caspase-6 inhibitor project, dose response (AID 743294)
Chain of Caspase-8 (Q14790 217-374 limits assumed): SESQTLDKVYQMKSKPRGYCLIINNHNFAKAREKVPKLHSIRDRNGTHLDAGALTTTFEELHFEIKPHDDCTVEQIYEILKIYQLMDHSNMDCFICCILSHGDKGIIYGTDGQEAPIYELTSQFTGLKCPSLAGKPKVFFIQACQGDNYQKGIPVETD
Chain of Caspase-8 (Q14790 385-479 limits assumed): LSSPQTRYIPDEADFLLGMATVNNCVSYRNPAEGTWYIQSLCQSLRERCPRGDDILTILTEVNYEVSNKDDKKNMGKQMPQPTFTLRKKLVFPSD

Caspase-9 = Caspase-9 (Homo sapiens, UniProt P55211); experiment: inhibitors of purified CASP9 protease – biochemical, fluorescence, plate reader, cherry-picked samples, selectivity assay for caspase-6 inhibitor project, dose response (AID 743293)
Chain of Caspase-9 (P55211 1-315 limits assumed): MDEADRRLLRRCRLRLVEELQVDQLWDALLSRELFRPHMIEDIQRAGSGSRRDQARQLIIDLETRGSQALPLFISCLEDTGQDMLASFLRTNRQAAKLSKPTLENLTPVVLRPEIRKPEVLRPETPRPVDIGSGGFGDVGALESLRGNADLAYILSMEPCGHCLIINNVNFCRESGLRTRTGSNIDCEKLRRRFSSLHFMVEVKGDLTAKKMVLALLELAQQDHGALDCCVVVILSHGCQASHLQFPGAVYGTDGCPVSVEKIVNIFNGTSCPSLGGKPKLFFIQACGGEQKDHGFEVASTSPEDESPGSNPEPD
Chain of Caspase-9 (P55211 331-416 limits assumed): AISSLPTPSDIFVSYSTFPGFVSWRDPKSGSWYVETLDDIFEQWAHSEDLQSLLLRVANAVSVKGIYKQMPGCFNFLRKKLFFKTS

Caspase-6 = molecular target: T4, Caspase-6 (Homo sapiens, UniProt P55212); experiment: inhibition of CASP6 peptide cleavage – biochemical, VEID-R110 fluorescence, cherry-pick, dose response (AID 720632)
T4 sequence (P55212 whole entry): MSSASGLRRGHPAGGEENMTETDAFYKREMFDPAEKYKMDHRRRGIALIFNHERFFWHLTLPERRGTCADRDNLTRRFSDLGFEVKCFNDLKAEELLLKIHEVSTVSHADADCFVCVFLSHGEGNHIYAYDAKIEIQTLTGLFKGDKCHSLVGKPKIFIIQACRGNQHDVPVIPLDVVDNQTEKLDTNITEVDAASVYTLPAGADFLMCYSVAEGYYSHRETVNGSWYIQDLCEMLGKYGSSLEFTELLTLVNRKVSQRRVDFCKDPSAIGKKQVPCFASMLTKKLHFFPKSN

[4] = molecular target: T5, Replicative DNA helicase DnaB (Mycobacterium tuberculosis, UniProt P9WMR3); experiment: DnaB intein splicing inhibitors, dose response, biochemical, cell-free fluorescence (AID 449749); type: functional
T5 sequence (P9WMR3 whole entry): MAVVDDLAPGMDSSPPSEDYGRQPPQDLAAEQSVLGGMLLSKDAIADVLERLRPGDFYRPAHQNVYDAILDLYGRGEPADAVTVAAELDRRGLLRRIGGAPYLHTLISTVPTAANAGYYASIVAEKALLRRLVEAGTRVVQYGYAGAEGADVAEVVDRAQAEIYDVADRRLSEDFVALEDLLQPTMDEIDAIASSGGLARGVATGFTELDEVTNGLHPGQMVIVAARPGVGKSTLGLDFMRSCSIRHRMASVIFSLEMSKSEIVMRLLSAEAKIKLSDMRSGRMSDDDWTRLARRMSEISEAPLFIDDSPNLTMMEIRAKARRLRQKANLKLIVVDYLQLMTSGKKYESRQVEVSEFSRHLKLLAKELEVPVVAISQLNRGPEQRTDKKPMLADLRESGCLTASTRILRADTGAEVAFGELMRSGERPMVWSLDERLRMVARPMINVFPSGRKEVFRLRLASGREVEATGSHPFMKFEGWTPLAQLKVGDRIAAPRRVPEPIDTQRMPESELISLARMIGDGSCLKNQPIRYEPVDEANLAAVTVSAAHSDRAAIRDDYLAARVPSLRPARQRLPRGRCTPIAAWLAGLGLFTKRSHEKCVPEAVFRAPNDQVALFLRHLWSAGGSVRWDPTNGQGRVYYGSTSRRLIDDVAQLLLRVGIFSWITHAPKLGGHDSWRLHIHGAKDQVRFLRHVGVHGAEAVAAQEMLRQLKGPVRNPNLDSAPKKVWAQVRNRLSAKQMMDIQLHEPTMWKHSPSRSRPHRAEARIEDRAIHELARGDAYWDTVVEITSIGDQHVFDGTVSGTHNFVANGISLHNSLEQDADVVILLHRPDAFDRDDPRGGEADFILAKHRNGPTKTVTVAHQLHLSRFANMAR

[5] = viability inhibitors of stage V gametocytes – luminescence, dose response (AID 1117278); type: functional, cell-based;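 further: gametocytes exposed to compound for 24 hours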
[6] = viability loss in human Jurkat cells – cell-based, luminescence, cytotoxicity control for P. falciparum gametocyte viability project, dose response (AID 1117277); type: functional;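 further: potency reflects loss of cellular ATP meaning fewer viable cells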
Cytochrome P450 2C19 = Cytochrome P450 2C19 (Homo sapiens, UniProt P33261); experiment: Cytochrome panel assay with activity outcomes. Panel member name: p450-cyp2c19 Compounds with AC50 equal or less than 10 uM are considered active; type: functional
Chain of Cytochrome P450 2C19 (P33261 whole entry): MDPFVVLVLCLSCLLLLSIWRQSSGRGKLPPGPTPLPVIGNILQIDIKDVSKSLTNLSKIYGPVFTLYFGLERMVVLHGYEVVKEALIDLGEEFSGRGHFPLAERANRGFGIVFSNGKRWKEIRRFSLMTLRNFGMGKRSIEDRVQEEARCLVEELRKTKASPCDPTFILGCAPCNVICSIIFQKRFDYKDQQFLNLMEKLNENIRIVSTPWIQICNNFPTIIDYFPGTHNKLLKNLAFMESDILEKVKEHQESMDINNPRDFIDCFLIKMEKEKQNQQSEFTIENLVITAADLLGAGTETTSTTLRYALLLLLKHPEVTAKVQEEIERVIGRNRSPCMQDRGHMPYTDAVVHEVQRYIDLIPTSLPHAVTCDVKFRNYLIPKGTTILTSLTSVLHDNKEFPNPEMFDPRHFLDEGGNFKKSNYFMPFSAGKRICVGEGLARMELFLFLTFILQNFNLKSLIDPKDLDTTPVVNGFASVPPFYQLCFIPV

Cytochrome P450 2D6 = Cytochrome P450 2D6 (Homo sapiens, UniProt P10635);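 further: CYP2D6 member of a cytochrome P450 panel assay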
Chain of Cytochrome P450 2D6 (P10635 whole entry): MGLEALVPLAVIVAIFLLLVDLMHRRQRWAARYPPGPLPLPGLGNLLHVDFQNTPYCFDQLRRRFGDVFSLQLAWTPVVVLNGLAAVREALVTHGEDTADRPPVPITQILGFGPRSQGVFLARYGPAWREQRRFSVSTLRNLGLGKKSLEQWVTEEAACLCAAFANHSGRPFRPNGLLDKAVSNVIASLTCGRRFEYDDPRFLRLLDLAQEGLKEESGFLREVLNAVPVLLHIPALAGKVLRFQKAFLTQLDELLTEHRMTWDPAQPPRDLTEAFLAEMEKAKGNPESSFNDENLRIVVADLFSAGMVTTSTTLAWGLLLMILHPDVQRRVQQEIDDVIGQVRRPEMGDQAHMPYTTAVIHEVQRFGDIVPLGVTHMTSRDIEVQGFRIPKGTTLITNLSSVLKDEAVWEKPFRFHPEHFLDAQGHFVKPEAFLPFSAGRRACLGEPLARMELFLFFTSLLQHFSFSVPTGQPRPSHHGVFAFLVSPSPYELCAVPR

Cytochrome P450 3A4 = Cytochrome P450 3A4 (Homo sapiens, UniProt P08684);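 further: CYP3A4 tested as one member of a cytochrome P450 panel screen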
Chain of Cytochrome P450 3A4 (P08684 whole entry): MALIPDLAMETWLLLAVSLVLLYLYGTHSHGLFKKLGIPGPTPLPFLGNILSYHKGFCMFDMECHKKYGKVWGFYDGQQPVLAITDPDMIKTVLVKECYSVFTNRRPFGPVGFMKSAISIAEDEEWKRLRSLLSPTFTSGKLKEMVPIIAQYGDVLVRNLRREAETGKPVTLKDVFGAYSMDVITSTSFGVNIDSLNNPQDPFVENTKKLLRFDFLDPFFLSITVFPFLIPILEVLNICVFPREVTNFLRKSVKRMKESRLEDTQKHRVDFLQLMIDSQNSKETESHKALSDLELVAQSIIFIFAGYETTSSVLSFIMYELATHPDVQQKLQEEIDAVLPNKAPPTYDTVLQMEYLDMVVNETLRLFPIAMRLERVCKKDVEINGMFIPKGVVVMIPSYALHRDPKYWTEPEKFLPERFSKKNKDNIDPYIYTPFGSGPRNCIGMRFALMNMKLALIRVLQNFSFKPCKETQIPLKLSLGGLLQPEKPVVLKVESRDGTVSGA

[7] = molecular target: Glutathione-S-transferase (Schistosoma japonicum, UniProt Q26513); experiment: GST-antibody interaction or FRET quenching – biochemical, TR-FRET, artefact control for Vif-APOBEC3G degradation inhibitor project, dose response (AID 1117362); type: functional
Chain of Glutathione-S-transferase (Q26513 whole entry): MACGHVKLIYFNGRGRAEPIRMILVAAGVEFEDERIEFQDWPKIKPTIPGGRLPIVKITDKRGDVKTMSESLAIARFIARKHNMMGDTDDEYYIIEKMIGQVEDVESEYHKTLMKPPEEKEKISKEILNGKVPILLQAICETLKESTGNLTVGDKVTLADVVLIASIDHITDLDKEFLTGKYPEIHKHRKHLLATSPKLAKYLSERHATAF

[8] = molecular target: Voltage-gated inwardly rectifying potassium channel KCNH2 (Homo sapiens, UniProt Q12809); experiment: concentration-dependent hERG rescue from blockers – cell-based, thallium flux, dose response (AID 2121); type: ADME
Chain of Voltage-gated inwardly rectifying potassium channel KCNH2 (Q12809 whole entry): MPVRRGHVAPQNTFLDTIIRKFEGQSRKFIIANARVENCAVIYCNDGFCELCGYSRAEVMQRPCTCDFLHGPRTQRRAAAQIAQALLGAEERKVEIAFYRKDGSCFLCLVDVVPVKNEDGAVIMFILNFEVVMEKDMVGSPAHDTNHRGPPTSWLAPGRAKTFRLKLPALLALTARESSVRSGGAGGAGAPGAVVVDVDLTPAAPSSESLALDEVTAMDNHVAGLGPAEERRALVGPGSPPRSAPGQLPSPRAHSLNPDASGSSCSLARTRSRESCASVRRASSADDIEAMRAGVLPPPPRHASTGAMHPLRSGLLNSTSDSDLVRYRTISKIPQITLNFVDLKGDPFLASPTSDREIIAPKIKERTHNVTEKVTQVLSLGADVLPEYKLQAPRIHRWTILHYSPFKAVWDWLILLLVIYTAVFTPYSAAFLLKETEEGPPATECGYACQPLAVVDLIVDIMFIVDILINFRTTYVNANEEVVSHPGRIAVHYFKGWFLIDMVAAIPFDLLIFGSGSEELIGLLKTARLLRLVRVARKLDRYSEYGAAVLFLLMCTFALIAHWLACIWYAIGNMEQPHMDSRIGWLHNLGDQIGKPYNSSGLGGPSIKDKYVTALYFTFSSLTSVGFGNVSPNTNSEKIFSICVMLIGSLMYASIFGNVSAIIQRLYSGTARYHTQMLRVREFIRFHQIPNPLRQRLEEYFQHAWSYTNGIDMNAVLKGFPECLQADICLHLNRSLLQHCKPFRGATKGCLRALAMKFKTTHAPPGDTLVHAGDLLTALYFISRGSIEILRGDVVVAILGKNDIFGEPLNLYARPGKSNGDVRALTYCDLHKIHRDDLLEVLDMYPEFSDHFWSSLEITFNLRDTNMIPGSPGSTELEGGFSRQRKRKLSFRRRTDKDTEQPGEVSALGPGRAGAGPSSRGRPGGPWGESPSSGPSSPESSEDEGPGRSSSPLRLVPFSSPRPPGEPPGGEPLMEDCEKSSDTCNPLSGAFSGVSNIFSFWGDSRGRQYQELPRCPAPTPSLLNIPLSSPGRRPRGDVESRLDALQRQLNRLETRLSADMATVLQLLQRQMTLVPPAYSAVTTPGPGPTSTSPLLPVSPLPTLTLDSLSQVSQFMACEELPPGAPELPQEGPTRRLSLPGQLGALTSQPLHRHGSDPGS

[9] = IC50 of Artemis nuclease activity blockers – biochemical, fluorescence intensity, dose response (AID 720701); type: functional;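 further: Artemis endonuclease enzyme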
[10] = molecular target: T6, Rac GTPase-activating protein 1 (Homo sapiens, UniProt Q9H0H5); experiment: blockers of MgcRacGAP-driven Rac1 GTP hydrolysis – biochemical, ADP Hunter fluorescence, primary and confirmatory, confirmation (AID 624330); type: functional
T6 sequence (Q9H0H5 whole entry): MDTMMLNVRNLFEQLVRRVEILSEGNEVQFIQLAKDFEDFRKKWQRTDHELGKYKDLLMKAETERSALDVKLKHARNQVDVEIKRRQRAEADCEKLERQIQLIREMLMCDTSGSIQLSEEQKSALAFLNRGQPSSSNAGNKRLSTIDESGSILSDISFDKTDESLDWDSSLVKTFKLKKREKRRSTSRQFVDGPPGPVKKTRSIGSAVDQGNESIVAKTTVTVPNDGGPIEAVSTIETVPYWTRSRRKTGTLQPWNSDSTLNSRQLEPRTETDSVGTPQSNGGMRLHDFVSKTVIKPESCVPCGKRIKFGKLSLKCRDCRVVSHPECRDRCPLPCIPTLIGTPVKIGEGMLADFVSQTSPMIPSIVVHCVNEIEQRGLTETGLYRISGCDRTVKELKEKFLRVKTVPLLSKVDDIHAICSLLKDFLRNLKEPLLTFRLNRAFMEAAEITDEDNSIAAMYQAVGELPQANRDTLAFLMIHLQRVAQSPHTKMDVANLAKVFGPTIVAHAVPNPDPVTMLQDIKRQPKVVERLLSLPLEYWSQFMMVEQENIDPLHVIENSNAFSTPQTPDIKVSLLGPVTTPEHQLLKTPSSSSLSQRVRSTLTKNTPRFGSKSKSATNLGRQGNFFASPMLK

[11] = molecular target: FAD-linked sulfhydryl oxidase ALR (Homo sapiens, UniProt P55789); experiment: ALR-catalysed DTT oxidation blockers – biochemical, H2O2 detection, luminescence, cherry-pick, dose response (AID 493248)
Chain of FAD-linked sulfhydryl oxidase ALR (P55789 whole entry): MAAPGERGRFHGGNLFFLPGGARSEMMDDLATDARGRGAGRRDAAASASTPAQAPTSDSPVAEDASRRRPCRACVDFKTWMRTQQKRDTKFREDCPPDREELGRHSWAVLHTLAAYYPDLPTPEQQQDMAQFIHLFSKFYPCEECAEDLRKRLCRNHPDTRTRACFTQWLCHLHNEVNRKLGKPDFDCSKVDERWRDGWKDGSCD

[12] = HIV-1 Vif–A3G interaction blockers – biochemical, TR-FRET, GST-Vif 1-94, biotin-A3G peptide, dose response retest, primary screen (AID 1117319); type: functional;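 further: TR-FRET signal of purified GST-Vif binding a biotinylated A3G peptide; inhibitors lower the FRET signal by blocking Vif and A3G binding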
[13] = molecular target: RNA-editing ligase 1, mitochondrial (Trypanosoma brucei brucei, UniProt P86926); experiment: inhibition of trypanosome RNA editing ligase – biochemical, fluorescence, Trypanosoma brucei, dose response (AID 1117295); type: functional
Chain of RNA-editing ligase 1, mitochondrial (P86926 whole entry, canonical isoform): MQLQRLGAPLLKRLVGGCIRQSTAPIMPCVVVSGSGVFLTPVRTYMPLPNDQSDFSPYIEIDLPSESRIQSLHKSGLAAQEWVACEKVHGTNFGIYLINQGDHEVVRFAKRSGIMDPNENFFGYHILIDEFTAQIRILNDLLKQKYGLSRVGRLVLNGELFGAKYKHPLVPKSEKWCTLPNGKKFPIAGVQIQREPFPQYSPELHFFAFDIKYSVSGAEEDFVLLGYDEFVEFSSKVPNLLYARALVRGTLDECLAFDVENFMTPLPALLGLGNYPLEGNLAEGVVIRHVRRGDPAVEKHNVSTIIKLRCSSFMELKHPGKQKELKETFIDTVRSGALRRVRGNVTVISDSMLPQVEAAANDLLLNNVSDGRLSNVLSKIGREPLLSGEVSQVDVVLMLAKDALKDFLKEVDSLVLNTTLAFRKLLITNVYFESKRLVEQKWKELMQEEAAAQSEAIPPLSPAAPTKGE

[14] = molecular target: T7, Low molecular weight phosphotyrosine protein phosphatase (Homo sapiens, UniProt P24666); experiment: inhibition of human LMPTP enzyme activity – biochemical, absorbance, pNPP substrate, LMPTP-A isoform, set 2, orthogonal assay, dose response (AID 743308); type: functional
T7 sequence (P24666 whole entry): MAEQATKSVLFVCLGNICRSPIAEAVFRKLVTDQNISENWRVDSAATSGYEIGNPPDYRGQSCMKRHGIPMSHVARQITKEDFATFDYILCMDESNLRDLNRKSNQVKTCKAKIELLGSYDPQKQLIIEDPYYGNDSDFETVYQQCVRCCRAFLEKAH

[15] = molecular target: T7, Low molecular weight phosphotyrosine protein phosphatase; experiment: inhibition of LMPTP-A enzymatic activity – biochemical, OMFP substrate, fluorescence intensity, set 2, dose response (AID 743307); type: functional

Nc1cc2nn(-c3ccccc3)nc2cc1Cl
EC50 (Protein RecA): 3.48 µM (active)
IC50 [1]: > 50 µM (not active)
EC50 [2]: > 67.5 µM (inactive)
IC50 [3]: > 67.5 µM (inactive)
AC50 (Caspase-8): 12.7 µM (active)
AC50 (Caspase-9): 29.9 µM (active)
AC50 (Caspase-6): 2 µM (active)
AC50 [4]: 16.5 µM (active)

O=C(Nc1ccc(S(=O)(=O)N2CCCC2)cc1)C1CC(=O)N(c2ccccc2)C1 (configuration not stated)
IC50 [5]: > 109 µM (inactive)
IC50 [6]: > 83.3 µM (inactive)

C=CCn1c(C)c(C(C)=O)c(N2CCN(c3ccccc3)CC2)nc1=S
AC50 (Cytochrome P450 2C19): 5.62 µM (inconclusive)
AC50 (Cytochrome P450 2D6): 22.4 µM (inconclusive)
AC50 (Cytochrome P450 3A4): 25.1 µM (inconclusive)
IC50 [7]: 19.8 µM (active)

O=C(NC(=S)Nc1cc(C(F)(F)F)ccc1N1CCOCC1)c1ccco1
EC50 [8]: 4.72 µM (active)

CC(C)CSc1oc(-c2ccco2)nc1S(=O)(=O)c1ccccc1
IC50 [5]: > 109 µM (inactive)
IC50 [6]: > 83.3 µM (inactive)

Cc1cc(C)n(-c2nc(NCC(C)O)c3c4c(sc3n2)CCCC4)n1 (configuration not stated)
IC50 [9]: 15 µM (active)

COc1cc(/C=N/NC2=NC(=O)C(c3ccccc3)S2)ccc1O (configuration not stated)
IC50 [10]: 44.3 µM (active)
AC50 [11]: 0.249 µM (active)
IC50 [12]: > 100 µM (active)

CCNC1=NC(c2ccccc2C(F)(F)F)C(C(=O)OC)=C(C)N1Cc1ccc(C(F)(F)F)cc1 (configuration not stated)
IC50 [13]: > 96.6 µM (inactive)

Clc1cccc(-c2cc(NCCCN3CCCCC3)c3ccccc3n2)c1
IC50 [14]: 1.85 µM (active)
IC50 [15]: 1.12 µM (active)

COC(=O)C1=C(C)N(Cc2ccc(C(F)(F)F)cc2)C(NCc2ccc3c(c2)OCO3)=NC1c1ccccc1C(F)(F)F (configuration not stated)
IC50 [13]: > 96.6 µM (inactive)

CC(C)CNc1nc(-c2ccccc2)nc2ccccc12
IC50 [14]: 58.5 µM (inactive)
IC50 [15]: 14.5 µM (active)
